What was measured:
CDK2 [1] = target: CDK2 (UniProt P24941); assay: Enzyme Assay
CDK2 [2] = target: CDK2 (UniProt P24941); assay: Enzyme Assay; remark: listed apart in the source
MAPK14 = MAPK14 (UniProt Q16539); assay: Inhibition of MAPK14 Kinase Activity; conditions: concentration not given here
ROCK2 = ROCK2 (UniProt O75116); assay: Inhibition of ROCK2 Kinase Activity; conditions: concentration not given here
ROCK2, sequence (O75116 whole entry, looked up): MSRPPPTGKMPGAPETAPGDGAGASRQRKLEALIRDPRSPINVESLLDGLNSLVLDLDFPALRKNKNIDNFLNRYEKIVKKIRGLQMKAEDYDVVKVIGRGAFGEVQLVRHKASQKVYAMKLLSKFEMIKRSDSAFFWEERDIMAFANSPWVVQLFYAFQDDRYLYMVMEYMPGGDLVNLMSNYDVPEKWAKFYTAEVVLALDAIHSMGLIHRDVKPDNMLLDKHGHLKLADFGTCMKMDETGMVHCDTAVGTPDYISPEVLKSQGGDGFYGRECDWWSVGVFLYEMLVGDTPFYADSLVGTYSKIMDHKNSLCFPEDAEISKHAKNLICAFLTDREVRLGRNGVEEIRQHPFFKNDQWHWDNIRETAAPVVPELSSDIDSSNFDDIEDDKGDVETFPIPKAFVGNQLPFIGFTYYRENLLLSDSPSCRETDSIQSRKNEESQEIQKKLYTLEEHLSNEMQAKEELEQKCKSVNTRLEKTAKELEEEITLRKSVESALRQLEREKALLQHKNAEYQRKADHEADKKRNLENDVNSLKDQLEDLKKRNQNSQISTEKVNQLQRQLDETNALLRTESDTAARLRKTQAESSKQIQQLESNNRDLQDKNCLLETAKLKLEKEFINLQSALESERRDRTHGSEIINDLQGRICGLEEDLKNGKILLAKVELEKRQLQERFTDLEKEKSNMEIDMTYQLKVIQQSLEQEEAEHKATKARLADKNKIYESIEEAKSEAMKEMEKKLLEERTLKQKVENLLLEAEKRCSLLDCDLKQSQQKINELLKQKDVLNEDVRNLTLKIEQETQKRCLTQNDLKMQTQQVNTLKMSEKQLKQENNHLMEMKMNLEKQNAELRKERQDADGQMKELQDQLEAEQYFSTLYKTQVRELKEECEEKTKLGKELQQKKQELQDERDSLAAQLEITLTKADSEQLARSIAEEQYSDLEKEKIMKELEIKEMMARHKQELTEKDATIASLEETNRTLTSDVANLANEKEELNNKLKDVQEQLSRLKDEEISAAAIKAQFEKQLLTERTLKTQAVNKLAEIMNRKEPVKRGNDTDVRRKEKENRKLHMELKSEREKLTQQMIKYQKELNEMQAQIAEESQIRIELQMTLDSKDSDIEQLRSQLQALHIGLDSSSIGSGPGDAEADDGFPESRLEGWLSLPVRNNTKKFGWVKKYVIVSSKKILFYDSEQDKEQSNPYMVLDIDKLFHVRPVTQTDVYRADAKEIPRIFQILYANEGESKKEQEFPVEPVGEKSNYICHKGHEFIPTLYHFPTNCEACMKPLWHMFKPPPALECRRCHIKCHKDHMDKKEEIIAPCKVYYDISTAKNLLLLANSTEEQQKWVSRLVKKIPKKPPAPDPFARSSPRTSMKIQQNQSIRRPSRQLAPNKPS

MAPK14, sequence (Q16539 whole entry, looked up): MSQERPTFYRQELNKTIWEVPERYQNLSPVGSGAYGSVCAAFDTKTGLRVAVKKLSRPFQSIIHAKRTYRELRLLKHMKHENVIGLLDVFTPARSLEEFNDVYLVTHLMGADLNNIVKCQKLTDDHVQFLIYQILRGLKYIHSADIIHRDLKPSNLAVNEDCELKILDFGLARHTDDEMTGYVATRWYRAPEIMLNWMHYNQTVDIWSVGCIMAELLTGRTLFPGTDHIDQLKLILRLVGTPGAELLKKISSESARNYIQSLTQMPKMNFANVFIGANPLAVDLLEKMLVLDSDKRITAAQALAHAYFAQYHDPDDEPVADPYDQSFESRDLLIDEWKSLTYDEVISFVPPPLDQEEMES

Cc1nc(-c2ccnc(Nc3ccc(Cl)nc3)n2)sc1C
IC50 (CDK2 [1]): > 10 µM | IC50 (CDK2 [2]): > 10 µM

CCOC(=O)c1sc(-c2ccnc(Nc3ccc(Cl)cc3)n2)nc1O
IC50 (CDK2 [1]): > 1 µM | IC50 (CDK2 [2]): > 10 µM

COc1ccc(Nc2nccc(-c3nc(C)c(C)s3)n2)cn1
IC50 (CDK2 [1]): > 1 µM | IC50 (CDK2 [2]): > 10 µM

Clc1ccc(Nc2nccc(-c3nccs3)n2)cn1
IC50 (CDK2 [1]): 11 µM | Ki (CDK2 [1]): 5.5 µM | IC50 (CDK2 [2]): > 50 µM | Ki (CDK2 [2]): > 50 µM | inhibition (MAPK14): 16% | inhibition (ROCK2): 13%

COc1ccc(Nc2nccc(-c3nccs3)n2)cn1
IC50 (CDK2 [1]): > 50 µM | IC50 (CDK2 [2]): > 100 µM
